Test results taken from PMC6934184, “Selective DNA-PKcs inhibition extends the therapeutic index of localized radiotherapy and chemotherapy” (The Journal of Clinical Investigation, 2019).

Target: T1, CDK8/cyclin C (Homo sapiens, UniProt P49336)
T1 construct: purchased Thermo Fisher Scientific (Life Technologies) SelectScreen
Test: SelectScreen LanthaScreen
Type: binding
Details: 1 µM
In short: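 Percent values come from Thermo SelectScreen profiling of NU5455, combining activity and binding assays. CSF1R was run in Z'LYTE format at Km app ATP, and CAMK1 in Adapta format with ATP listed at 10.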

T1 sequence (P49336 whole entry): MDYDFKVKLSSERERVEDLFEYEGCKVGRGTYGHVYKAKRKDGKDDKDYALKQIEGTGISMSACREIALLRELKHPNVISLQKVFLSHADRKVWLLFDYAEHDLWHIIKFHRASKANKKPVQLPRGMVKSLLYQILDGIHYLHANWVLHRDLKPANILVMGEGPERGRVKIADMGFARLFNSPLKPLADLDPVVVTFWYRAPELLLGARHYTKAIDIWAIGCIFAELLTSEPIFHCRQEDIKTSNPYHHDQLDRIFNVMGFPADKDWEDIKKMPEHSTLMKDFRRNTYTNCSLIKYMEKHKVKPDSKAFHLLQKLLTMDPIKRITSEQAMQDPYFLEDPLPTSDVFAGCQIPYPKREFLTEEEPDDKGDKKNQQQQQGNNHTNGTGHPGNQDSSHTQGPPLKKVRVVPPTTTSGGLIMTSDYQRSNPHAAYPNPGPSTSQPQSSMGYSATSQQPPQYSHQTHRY
T1 sequence (P24863 whole entry partner): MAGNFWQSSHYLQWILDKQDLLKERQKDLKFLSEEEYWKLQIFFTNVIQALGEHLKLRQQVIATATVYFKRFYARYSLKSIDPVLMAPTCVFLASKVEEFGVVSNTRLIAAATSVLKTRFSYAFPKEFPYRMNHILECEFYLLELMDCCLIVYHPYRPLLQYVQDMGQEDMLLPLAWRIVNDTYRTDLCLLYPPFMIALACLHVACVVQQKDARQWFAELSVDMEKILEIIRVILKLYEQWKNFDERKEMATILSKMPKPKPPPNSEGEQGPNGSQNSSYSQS

SMILES: CN(C(=O)CN1CCOCC1)c1ccc2sc3c(-c4cccc5c(=O)cc(N6CC7CCC(C6)O7)oc45)cccc3c2c1 [NU5455]
- % displacement: 0.1%
